Series [1] can be described thus: Elution study on porcine coronary artery. Conditions: for Percent of Drug Eluted Over Time: samples 1 and 2.
Experimental: (§1) To examine the effects of certain formulations of the present invention on porcine coronary artery samples, the samples were each prepared as follows:
(§2) Elution Media Preparation: Normal saline was prepared by weighing 4.5 grams of sodium chloride into a 500 mL Pyrex® bottle. 495.5 grams HPLC water was added to the 500 ml bottle. The bottle was then capped and vigorously shaken. 25% ethanol/saline elution media was prepared by weighing 25.0 grams of ethanol (200 proof) into a 100 mL Pyrex® bottle. 75.0 grams of normal saline was added to the 100 ml bottle containing ethanol. The bottle was capped and vigorously shaken.
(§3) Elution Method: Porcine coronary arterial vessels were obtained and dissected from hearts obtained from the butcher shop. Coronary arteries were flash frozen with dry ice then stored at −80° C. When ready for testing, arteries were removed from the freezer and allowed to thaw at room temperature. Any fat and muscle tissue were carefully removed using scissors and tweezers. Vessels were rinsed several times with normal saline containing 0.05% sodium azide.
(§4) Vessels were then cut into 1 cm sections. 5 μL of formulation (approximately 125 μg of drug) was carefully added onto the outer part of the tissue using a 10 μL Hamilton® syringe. Ethanol was allowed to evaporate at room temperature for 15-20 minutes.
(§5) Tissue was then placed into a 7 mL glass vial. 2 mL elution media, previously warmed to 37° C., was added carefully to each vial using an Eppendorf® pipette. Each vial was capped and placed in a 37° C. incubator and gently shaken at 100 spm (strokes per minute).
(§6) At certain time points, elution media was removed and fresh 2 mL media (at 37° C.) was slowly added to the vial.
(§7) Drug formulations in ethanol were applied (approximately 125 μg) onto previously frozen “butcher shop” porcine coronary arterial vessel and allowed to dry after 15-20 minutes.
For series [2] the following is noted: pig.
Experimental: as §1, §2, §3, §4, §5, §6, §7

Several values for one entry are separate records, joined by “and”; a condition that tells them apart may be missing. Equal values may be shown once. Read-outs that look alike come from different tables or passages of the source.

As to `CO[C@H]1C[C@@H]2CC[C@@H](C)[C@@](O)(O2)C(=O)C(=O)N2CCCC[C@H]2C(=O)O[C@H]([C@H](C)C[C@@H]2CC[C@@H](OCCO)[C@H](OC)C2)CC(=O)[C@H](C)/C=C(\C)[C@@H](O)[C@@H](OC)C(=O)[C@H](C)C[C@H](C)/C=C/C=C/C=C/1C` [Everolimus], the “Percent of Drug Eluted Over Time” value in series [1] (0.5 hours, approx. 125 μg drug on 1 cm vessel section, 25% ethanol/saline, 37° C.) was 77% and 71%; in series [1] (1 hour, approx. 125 μg drug on 1 cm vessel section, 25% ethanol/saline, 37° C.), 86% and 76%; in series [1] (2 hours, approx. 125 μg drug on 1 cm vessel section, 25% ethanol/saline, 37° C.) it was 87% and 79%; in series [1] (3 hours, approx. 125 μg drug on 1 cm vessel section, 25% ethanol/saline, 37° C.) it was 88% and 80%; in series [1] (23 hours, approx. 125 μg drug on 1 cm vessel section, 25% ethanol/saline, 37° C.), 89% and 80%; in series [1] (Extract (after extraction, following 23 hours of elution)), 89% and 81%. Further, the “Elution behavior from vessel tissue (in words)” value in series [1] (porcine coronary arterial tissue, 25% ethanol/saline, 37° C.) was “eluting significantly faster than CRC-023”.

For the compound `CO[C@H]1C[C@@H]2CC[C@@H](C)[C@@](O)(O2)C(=O)C(=O)N2CCCC[C@H]2C(=O)O[C@H]([C@H](C)C[C@@H]2CC[C@@H](O)[C@H](OC)C2)CC(=O)[C@H](C)/C=C(\C)[C@@H](O)[C@@H](OC)C(=O)[C@H](C)C[C@H](C)/C=C/C=C/C=C/1C` [Sirolimus], in series [2], the “Elution behavior from vessel tissue (in words)” value is listed as “eluting significantly faster than CRC-023” and the “Time within which most of the drug eluted off the tissue” value was no more than 2 h.

For the origin of these results see US20260102380A1, “Synthesis and Characterization of Cyclic Hydrocarbon Esters of Everolimus” (BIOTRONIK AG, priority 2022, published 2026).
